Experimental data taken from publication PMC5537602, “TRPA1 channel mediates organophosphate-induced delayed neuropathy” (Cell Discovery, 2017).

Experiments:
hTRPA1 = target: T1, hTRPA1 (Homo sapiens, UniProt O75762); assay: cell-based; type: cell-based; details: 30 μM, calcium-free external solution
T1 construct: expressed in transfected cells; host or cells: HEK293, transient, EGFP plasmid co-transfected
Description: (§1) Human embryonic kidney 293 (HEK293) cells were cultured in DMEM containing 10% (vol/vol) heat-inactivated fetal bovine serum, 100 units ml^−1 penicillin–streptomycin and 2 mM L-glutamine at 37 °C in a humidity-controlled sterile incubator with 5% CO2. All cell culture reagents were purchased from Life Technologies. HEK293 cells were transfected transiently with the corresponding plasmids using lipofectamine 2000 (Life Technologies). Transfection efficiency was monitored by co-transfecting EGFP plasmid which codes for the enhanced green fluorescent protein. Electrophysiological recordings were performed between 24 and 36 h after transfection.
(§2) Whole-cell patch-clamp recordings in DRG neurons (small diameter, […]) and HEK293 cells were operated at room temperature (23–25 °C) using EPC-10 amplifier and Patch Master Software (HEKA). […] Currents were sampled at 10 kHz and low-pass filtered at 2.9 kHz. The internal solution was as follows (in mM): 140 CsCl, 10 HEPES, 5 EGTA, 0.1 CaCl2 and 1 MgCl2, with pH adjusted to 7.2 by CsOH and osmolarity 295–300 mOsm. The calcium-free external solution contained (in mM) 140 NaCl, 5 KCl, 0.5 EGTA, 1 MgCl2, 10 Glucose and 10 HEPES, with pH adjusted to 7.4 by NaOH and osmolarity 300–310 mOsm. The 0.5 mM EGTA was replaced by 2 mM CaCl2 for the recordings in DRG neurons. TRPA1 currents development was monitored with repetitive injections of 300 ms duration voltage ramps from −100 to +100 mV every 2 s and the holding potential was set to 0 mV for 50 ms, existing in both sides of the voltage ramp. To record inward currents in DRG neurons, we conducted voltage clamp at holding membrane potential of −70 mV. Solutions were switched using a gravity-fed continuous focal perfusion system.

rTRPA1 = target: T2, rTRPA1 (Rattus norvegicus, UniProt Q6RI86); assay: Whole-cell patch-clamp, HEK293 cells expressing rTRPA1; type: cell-based; details: 30 μM, calcium-free external solution
T2 construct: expressed in transfected cells; host or cells: HEK293, transient
T2 sequence (Q6RI86 whole entry): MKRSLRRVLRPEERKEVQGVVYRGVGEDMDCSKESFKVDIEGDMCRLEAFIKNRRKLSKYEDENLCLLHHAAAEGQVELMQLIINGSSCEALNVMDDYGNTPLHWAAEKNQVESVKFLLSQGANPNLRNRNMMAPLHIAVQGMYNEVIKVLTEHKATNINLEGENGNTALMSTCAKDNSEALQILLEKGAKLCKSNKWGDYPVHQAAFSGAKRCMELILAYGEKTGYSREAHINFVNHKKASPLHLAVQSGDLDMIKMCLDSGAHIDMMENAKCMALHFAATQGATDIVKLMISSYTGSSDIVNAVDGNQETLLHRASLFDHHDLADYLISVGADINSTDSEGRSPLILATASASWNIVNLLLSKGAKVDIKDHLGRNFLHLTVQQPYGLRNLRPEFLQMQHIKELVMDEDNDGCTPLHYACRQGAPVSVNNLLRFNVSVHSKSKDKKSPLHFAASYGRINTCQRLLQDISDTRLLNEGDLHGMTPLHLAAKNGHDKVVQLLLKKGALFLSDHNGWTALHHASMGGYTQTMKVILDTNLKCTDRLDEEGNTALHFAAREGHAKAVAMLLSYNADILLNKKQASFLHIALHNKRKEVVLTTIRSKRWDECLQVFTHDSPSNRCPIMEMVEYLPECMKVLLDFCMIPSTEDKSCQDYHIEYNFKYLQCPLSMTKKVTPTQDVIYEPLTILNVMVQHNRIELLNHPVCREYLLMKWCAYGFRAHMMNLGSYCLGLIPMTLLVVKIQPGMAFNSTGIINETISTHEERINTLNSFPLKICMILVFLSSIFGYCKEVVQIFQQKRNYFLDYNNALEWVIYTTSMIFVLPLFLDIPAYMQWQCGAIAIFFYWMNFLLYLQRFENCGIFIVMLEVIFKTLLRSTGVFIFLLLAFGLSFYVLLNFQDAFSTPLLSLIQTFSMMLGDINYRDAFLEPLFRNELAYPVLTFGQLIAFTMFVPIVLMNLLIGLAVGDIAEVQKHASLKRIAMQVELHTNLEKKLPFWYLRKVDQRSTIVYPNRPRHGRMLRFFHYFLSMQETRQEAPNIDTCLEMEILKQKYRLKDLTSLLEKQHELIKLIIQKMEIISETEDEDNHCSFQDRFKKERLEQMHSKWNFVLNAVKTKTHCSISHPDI
Description: as §1, §2

cTRPA1 = target: T3, cTRPA1 (Gallus gallus, UniProt W8VTH6); assay: Whole-cell patch-clamp, HEK293 cells expressing cTRPA1; type: cell-based, chicken
T3 sequence (W8VTH6 1-1126): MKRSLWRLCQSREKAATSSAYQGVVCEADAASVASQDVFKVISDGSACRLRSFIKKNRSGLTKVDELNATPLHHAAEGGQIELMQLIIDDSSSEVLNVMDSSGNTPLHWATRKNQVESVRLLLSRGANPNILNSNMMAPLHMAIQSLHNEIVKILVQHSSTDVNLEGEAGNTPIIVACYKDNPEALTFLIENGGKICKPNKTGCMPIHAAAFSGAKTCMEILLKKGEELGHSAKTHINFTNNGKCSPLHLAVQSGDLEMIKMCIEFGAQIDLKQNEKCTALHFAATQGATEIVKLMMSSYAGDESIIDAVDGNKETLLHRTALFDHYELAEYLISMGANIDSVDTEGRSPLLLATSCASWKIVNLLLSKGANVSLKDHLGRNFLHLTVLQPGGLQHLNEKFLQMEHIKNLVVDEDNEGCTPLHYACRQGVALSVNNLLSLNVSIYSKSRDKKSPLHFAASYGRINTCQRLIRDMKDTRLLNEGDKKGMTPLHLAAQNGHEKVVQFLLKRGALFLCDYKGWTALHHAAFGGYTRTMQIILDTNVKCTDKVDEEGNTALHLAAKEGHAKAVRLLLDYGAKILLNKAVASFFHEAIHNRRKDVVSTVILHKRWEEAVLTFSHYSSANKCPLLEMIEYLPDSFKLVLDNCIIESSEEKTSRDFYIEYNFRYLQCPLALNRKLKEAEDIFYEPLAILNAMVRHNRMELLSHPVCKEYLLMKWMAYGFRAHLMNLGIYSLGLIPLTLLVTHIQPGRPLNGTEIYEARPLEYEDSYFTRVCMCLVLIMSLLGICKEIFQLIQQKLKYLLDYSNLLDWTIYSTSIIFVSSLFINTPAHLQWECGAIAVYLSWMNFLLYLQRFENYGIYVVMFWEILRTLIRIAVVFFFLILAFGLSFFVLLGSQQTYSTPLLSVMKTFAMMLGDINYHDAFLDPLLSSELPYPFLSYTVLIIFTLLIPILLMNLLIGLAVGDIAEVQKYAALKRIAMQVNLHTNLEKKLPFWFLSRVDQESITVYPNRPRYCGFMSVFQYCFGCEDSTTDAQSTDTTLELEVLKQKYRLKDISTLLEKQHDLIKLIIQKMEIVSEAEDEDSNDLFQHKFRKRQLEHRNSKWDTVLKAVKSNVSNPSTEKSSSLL
Description: All cell culture reagents were purchased from Life Technologies. HEK293 cells were transfected transiently with the corresponding plasmids using lipofectamine 2000 (Life Technologies). Transfection efficiency was monitored by co-transfecting EGFP plasmid which codes for the enhanced green fluorescent protein. Electrophysiological recordings were performed between 24 and 36 h after transfection.
as §2, with “The internal solution was as follows (in mM): 140 CsCl, 10 HEPES, 5 EGTA, 0.1 CaCl2 and 1 MgCl2, with pH adjusted to 7.2 by CsOH and osmolarity 295–300 mOsm.” left out

hens [1] = type: in vivo, hen; details: hens, TOCP single dose 750 mg kg−1, end of the 21-day period
Description: The chosen adult Hyline Brown hens were raised individually in stainless steel wire cages. After 7 days of acclimatization, the chosen hens were randomly divided into groups (n=6–10 for each group). The hens in the delayed neuropathy groups were administered a single dose of 750 mg kg^−1 TOCP and repeated doses of 75 mg kg^−1 malathion by gavage. TOCP and malathion were dissolved in corn oil and administered at 0.65 ml kg^−1. In the HC030031 treatment groups, 100 mg kg^−1 HC030031 was administered by gavage daily beginning at day 0 or day 11. All hens were examined daily for signs of delayed neurotoxicity. A five-point graded scale was used to describe the clinical symptoms of delayed neuropathy, with 0 indicating normal ambulation; (1) suspected ataxia (lack of strength in the legs and tottering); (2) mild ataxia (slow, clumsy and unsteady gait); (3) gross ataxia (waddling gait and staggering and falling despite being active); (4) mild paralysis (typical paralytic posture and lame appearance); and (5) complete paralysis (unable to maintain posture, stand up or move at all), as described previously.

hens [2] = assay: Transmission electron microscopy of hen spinal cord and sciatic nerve; type: in vivo; details: 21 days after exposure
Description: For hens, the animals were anesthetized with sodium pentobarbital (100 mg kg^−1) and killed 21 days after exposure to TOCP and malathion. They were then perfused with normal saline followed immediately by 4% paraformaldehyde. The lumbar spinal cord at approximately the L2-L3 level and the sciatic nerve of the left leg were removed and fixed by immersion in ice-cold 2.5% glutaraldehyde. Subsequently, the samples were post-fixed in 1% OsO4 for 1 h, dehydrated with the ethanol series, and embedded in epon resin. Sixty-nanometer ultra-thin sections were double stained with lead citrate and uranyl acetate and examined with an electron microscopy.

mTRPA1 = mTRPA1 (Mus musculus, UniProt Q8BLA8); assay: Whole-cell patch-clamp, HEK293 cells expressing mTRPA1; type: cell-based; parameters: expressed in transfected cells; host or cells: HEK293; details: 30 μM, calcium-free external solution
mTRPA1, sequence (Q8BLA8 whole entry): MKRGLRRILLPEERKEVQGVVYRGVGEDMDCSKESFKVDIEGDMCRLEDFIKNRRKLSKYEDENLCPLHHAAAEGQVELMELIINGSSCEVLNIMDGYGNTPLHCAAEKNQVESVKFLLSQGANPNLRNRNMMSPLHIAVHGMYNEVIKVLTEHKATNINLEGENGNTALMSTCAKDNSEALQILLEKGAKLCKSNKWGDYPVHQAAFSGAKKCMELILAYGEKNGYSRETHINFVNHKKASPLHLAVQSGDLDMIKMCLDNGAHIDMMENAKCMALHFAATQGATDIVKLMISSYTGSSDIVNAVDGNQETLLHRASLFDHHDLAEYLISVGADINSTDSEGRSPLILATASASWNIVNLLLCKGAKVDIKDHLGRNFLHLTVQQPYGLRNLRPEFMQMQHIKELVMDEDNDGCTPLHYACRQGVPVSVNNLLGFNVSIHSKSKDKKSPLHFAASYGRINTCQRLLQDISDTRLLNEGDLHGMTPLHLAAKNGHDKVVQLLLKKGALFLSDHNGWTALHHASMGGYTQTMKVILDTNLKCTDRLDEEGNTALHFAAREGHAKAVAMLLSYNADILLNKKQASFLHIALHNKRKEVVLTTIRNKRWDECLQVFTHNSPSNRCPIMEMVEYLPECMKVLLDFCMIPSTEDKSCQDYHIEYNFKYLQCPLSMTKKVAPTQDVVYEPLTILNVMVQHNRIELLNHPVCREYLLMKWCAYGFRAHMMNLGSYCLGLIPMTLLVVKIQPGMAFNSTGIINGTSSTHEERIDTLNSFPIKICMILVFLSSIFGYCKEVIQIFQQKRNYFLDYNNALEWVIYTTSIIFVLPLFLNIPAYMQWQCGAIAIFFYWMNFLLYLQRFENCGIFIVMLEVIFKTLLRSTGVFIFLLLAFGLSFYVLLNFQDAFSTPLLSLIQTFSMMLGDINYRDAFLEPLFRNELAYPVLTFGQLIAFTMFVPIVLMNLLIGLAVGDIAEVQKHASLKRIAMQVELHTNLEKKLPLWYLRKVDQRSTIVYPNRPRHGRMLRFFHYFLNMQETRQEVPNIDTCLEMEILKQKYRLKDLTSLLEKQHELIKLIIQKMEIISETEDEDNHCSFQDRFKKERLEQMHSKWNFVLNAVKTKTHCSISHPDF
Description: as §1, §2

[3] = system: hTRPA1 carrying single mutations (C414A, C421A, C621A, C641A, C665A or K710R); assay: Whole-cell patch-clamp of mutant hTRPA1 channels; type: cell-based, human; details: 30 μM flufenamic acid
Description: as §1
Whole-cell patch-clamp recordings in DRG neurons (small diameter, […]) and HEK293 cells were operated at room temperature (23–25 °C) using EPC-10 amplifier and Patch Master Software (HEKA). […] Currents were sampled at 10 kHz and low-pass filtered at 2.9 kHz. The internal solution was as follows (in mM): 140 CsCl, 10 HEPES, 5 EGTA, 0.1 CaCl2 and 1 MgCl2, with pH adjusted to 7.2 by CsOH and osmolarity 295–300 mOsm. […] TRPA1 currents development was monitored with repetitive injections of 300 ms duration voltage ramps from −100 to +100 mV every 2 s and the holding potential was set to 0 mV for 50 ms, existing in both sides of the voltage ramp. […]

T1 sequence (O75762 whole entry): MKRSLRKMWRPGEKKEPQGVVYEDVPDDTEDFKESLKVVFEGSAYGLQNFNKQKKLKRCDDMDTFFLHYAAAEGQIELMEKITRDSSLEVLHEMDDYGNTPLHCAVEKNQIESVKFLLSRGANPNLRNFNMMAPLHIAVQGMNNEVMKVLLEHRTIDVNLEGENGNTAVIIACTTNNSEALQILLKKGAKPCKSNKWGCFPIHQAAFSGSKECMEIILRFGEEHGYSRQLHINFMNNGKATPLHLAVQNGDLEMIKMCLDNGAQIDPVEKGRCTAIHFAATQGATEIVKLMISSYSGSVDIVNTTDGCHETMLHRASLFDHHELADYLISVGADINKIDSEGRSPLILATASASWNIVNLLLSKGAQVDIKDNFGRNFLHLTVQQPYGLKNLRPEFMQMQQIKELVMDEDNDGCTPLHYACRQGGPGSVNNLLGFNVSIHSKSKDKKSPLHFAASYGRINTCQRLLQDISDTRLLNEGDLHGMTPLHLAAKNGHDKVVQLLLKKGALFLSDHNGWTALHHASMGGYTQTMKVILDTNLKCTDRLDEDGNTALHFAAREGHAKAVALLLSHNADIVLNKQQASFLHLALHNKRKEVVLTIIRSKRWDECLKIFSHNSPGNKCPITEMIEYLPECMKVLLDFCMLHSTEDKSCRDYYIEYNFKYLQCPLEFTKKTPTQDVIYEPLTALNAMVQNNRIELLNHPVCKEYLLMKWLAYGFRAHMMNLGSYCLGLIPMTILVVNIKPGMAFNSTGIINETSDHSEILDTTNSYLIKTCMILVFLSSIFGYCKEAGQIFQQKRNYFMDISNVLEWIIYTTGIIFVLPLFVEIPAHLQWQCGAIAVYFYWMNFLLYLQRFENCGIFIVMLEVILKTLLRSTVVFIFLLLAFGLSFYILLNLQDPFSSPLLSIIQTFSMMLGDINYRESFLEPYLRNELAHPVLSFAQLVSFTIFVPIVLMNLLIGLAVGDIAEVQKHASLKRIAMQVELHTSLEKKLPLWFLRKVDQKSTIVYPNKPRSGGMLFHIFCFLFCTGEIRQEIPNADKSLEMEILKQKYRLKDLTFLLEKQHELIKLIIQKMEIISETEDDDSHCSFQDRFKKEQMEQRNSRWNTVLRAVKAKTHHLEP

Cc1ccccc1OP(=O)(Oc1ccccc1C)Oc1ccccc1C [TOCP, tri-ortho-cresyl phosphate]
activation of hTRPA1 whole-cell currents (hTRPA1): effectively activate | activation of rTRPA1 whole-cell currents (rTRPA1): effectively activate | EC50 (cTRPA1): 15.8 ± 1.37 µM | activation of cTRPA1 whole-cell currents (cTRPA1; calcium-free external solution): effectively activate | clinical symptoms of delayed neuropathy (hens [1]): completely paralyzed | damage of spinal cord and sciatic nerve (TEM) (hens [2]): severely damaged the spinal cord and sciatic nerve | activation of mTRPA1 whole-cell currents (mTRPA1): effectively activate

O=C(O)c1ccccc1Nc1cccc(C(F)(F)F)c1 [flufenamic acid]
role of the mutated residues (except C414) for activation of TRPA1 [3]: not essential
